Test results as given in BindingDB's records for doi:10.1016/j.bmc.2019.115091 (Kyowa Kirin, 2019).

Test: Inhibition of chemR23 expressed in human CAL1 cells assessed as reduction in chemerin-induced chemotaxis incubated for 4 hrs by cell counting based CellTiter-Glo assay

- IC50: 0.38 µM
SMILES: CCCCN(c1nc2cc(C(=O)NC)ccc2o1)[C@H](C)c1ccc(-c2ccccc2-c2nnn[nH]2)cc1
